The results in this text go back to ChEMBL document CHEMBL1130889, “The synthesis and biological evaluation of a novel series of indole PDE4 inhibitors I” (Bioorg Med Chem Lett, 1998).

Data set [1] deals with Phosphodiesterase 4 (Cavia porcellus). Kind of data set: Binding affinity against PDE4 was determined using [3H]- rolipram in guinea pig brain membrane binding assay.
Data set [2] shares this target. Briefly: Inhibitory activity against Phosphodiesterase type IV (PDE4) obtained from guinea-pig macrophage was evaluated.
Data set [3] deals with PBMC. Briefly: Inhibition of tumor necrosis factor-alpha release from activated human monocyte cells at 0.3 uM. Type of data set: functional, cell-based.
In data set [4] the test system is PBMC. Briefly: Inhibition of tumor necrosis factor-alpha release from activated human monocyte cells in the presence of RP73401. The format is functional, cell-based.
Data set [5] has as its system PBMC. Briefly: Inhibition of tumor necrosis factor-alpha release from activated human monocyte cells. Type of data set: functional, cell-based.
A further data set relates to Mus musculus. Briefly: Inhibition of LPS-induced tumor necrosis factor-alpha (TNF-alpha) production in mice at 50 mg/kg. The format is functional.
Data set [6] is described as follows: Terminal half life was evaluated in mice after oral administration. Type of data set: ADME, organism-based. The note with it: mouse, in vivo.
The nature of data set [7]: Clearance was evaluated in mice after intravenous administration. Type of data set: ADME, organism-based. The note with it: mouse, in vivo.
Data set [8] in a line: Area under the curve was evaluated in mice after intravenous administration. The note with it: mouse, in vivo. Type of data set: ADME, organism-based.
A short description of data set [9]: Maximum plasma concentration was evaluated in mice after oral administration. The format is ADME, organism-based. The note with it: mouse, read-out: Cp max.
A short description of data set [10]: Bioavailability was evaluated in mice after oral administration. The format is ADME, organism-based. The note with it: mouse, in vivo, read-out: Bioavailabiility.
Data set [11] is described as follows: Area under the curve was evaluated in mice after oral administration. The format is ADME, organism-based. The note with it: mouse, in vivo.
Data set [12] is described as follows: Volume of distribution was evaluated in mice after intravenous administration. The note with it: mouse, in vivo, read-out: Vdss. The format is ADME, organism-based.
Data set [13] in a line: Terminal half life was evaluated in mice after intravenous administration. Type of data set: ADME, organism-based. The note with it: mouse, in vivo.
A short description of data set [14]: Maximum time required to reach Cp max was evaluated in mice after oral administration. The format is ADME, organism-based. The note with it: mouse, plasma.
Data set [15] deals with PBMC. Kind of data set: Inhibition of tumor necrosis factor-alpha release from activated human monocyte cells at […]. Type of data set: functional, cell-based.

Molecules are shown by their SMILES. Bounds are passed on as bounds.

Compound `COc1ccccc1Cn1cc(C)c2ccc(C(=O)Nc3c(Cl)cncc3Cl)cc21` returned a Ki in data set [1] of 54 nM. Besides, the IC50 in data set [2] came out at 80 nM.

In turn, `Cc1c[nH]c2cc(C(=O)Nc3c(Cl)cncc3Cl)ccc12` registered an IC50 in data set [2] of 5 nM.

Turning to `Cc1cn(CCN2CCOCC2)c2cc(C(=O)Nc3c(Cl)cncc3Cl)ccc12`, the IC50 is 28 nM in the data set on PBMC [3], 3 nM in the data set with PBMC [4] and 380 nM in [2]. Moreover, the Ki in data set [1] is 172 nM.

Take `Cc1cn(CC2CCCCC2)c2cc(C(=O)Nc3c(Cl)cncc3Cl)ccc12`: the half-maximal inhibitory concentration (IC50) was found to be 200 nM in the data set on PBMC [5], 8 nM in the data set with PBMC [4] and 100 nM in data set [2]. In data set [1], this compound came in with an inhibition constant (Ki) of 120 nM. This compound yielded an inhibition in vivo at 50 mg/kg in the data set with Mus musculus of 0%.

As to `Cc1ccc(S(=O)(=O)n2cc(Cc3ccccc3)c3ccc(C(=O)Nc4c(Cl)cncc4Cl)cc32)cc1`, in [1], the Ki is above 3745 nM. The IC50 in [2] was above 10000 nM.

On to `Cc1cn(Cc2cccc([N+](=O)[O-])c2)c2cc(C(=O)Nc3c(Cl)cncc3Cl)ccc12`, for which the figures for the 50% inhibitory concentration (IC50) (with PBMC [5]; in the data set with PBMC [4]; in data set [2]) were 34 nM, 2 nM and 52 nM, respectively. This compound also registered a Ki in data set [1] of 75 nM. This compound also registered an inhibition in vivo at 50 mg/kg with Mus musculus of 16%.

On to `Cc1cn(Cc2ccccc2)c2cc(C(=O)Nc3c(Cl)cncc3Cl)ccc12`, for which the IC50 with PBMC [5] came to 23 nM; in the data set on PBMC [4], 4 nM; in data set [2], 18 nM. Further, the Ki in data set [1] was found to be 135 nM. Besides, the inhibition in vivo at 50 mg/kg with Mus musculus was 0%.

As to `Cc1nc(Cn2cc(C)c3ccc(C(=O)Nc4c(Cl)cncc4Cl)cc32)cs1`, the concentration for half-maximal inhibition (IC50) with PBMC [5] worked out at 24.1 nM; with PBMC [4], 1.5 nM; in data set [2], 42 nM. The same compound gave an inhibition constant Ki in data set [1] of 24 nM. The same compound yielded an inhibition in vivo at 50 mg/kg with Mus musculus of 0%.

With `Cc1noc(C)c1Cn1cc(C)c2ccc(C(=O)Nc3c(Cl)cncc3Cl)cc21`, the IC50 in the data set with PBMC [5] is 580 nM; in the data set on PBMC [4], 18 nM; in data set [2] it was 187 nM. In [1], the inhibition constant Ki is 75 nM. In addition, in the data set on Mus musculus, the inhibition in vivo at 50 mg/kg is 0%.

Compound `COc1ccc(C(=O)Nc2c(Cl)cncc2Cl)cc1OC1CCCC1` displayed a median effective dose (ED50) in the data set with Mus musculus of 10 mg/kg.

With `Cc1cn(CCc2ccccc2)c2cc(C(=O)Nc3c(Cl)cncc3Cl)ccc12`, the 50% inhibitory concentration (IC50) in the data set on PBMC [5] is 8 nM; in the data set with PBMC [4], 0.9 nM; in [2] it was 70 nM. This compound also gave a Ki in [1] of 280 nM.

As for `Cc1cn(Cc2ccc(S(C)(=O)=O)cc2)c2cc(C(=O)Nc3c(Cl)cncc3Cl)ccc12`, the values for the IC50 (in the data set on PBMC [5]; in the data set with PBMC [4]; in data set [2]) were 134 nM, above 1 nM and 200 nM, respectively. In addition, the Ki in data set [1] came out at 300 nM. Further, in the data set with Mus musculus, the inhibition in vivo at 50 mg/kg came to 0%.

As for `Cc1ccc(S(=O)(=O)n2cc(C)c3ccc(C(=O)Nc4c(Cl)cncc4Cl)cc32)cc1`, the half-maximal inhibitory concentration (IC50) in the data set on PBMC [5] was 300 nM; in the data set on PBMC [4], 3 nM; in data set [2], 45 nM. The compound further had a Ki in data set [1] of 712 nM. In the data set on Mus musculus, 50 mg/kg produced 0% inhibition in vivo.

Consider `CCc1cn(S(=O)(=O)c2ccc(C)cc2)c2cc(C(=O)Nc3c(Cl)cncc3Cl)ccc12`, for which the inhibitory constant (Ki) in data set [1] was above 3745 nM. In data set [2], this compound had a half-maximal inhibitory concentration (IC50) of 2900 nM.

As for `COc1cccc(Cn2cc(C)c3ccc(C(=O)Nc4c(Cl)cncc4Cl)cc32)c1`, the Ki in [1] is recorded as 75 nM. In data set [2], this compound displayed an IC50 of 60 nM.

For `COc1ccc(Cn2cc(C)c3ccc(C(=O)Nc4c(Cl)cncc4Cl)cc32)cc1`, the half-life is 1.7 h in data set [6] and 2.6 h in data set [13]. For the same compound, the clearance in [7] was 24.7 mL/min/kg. Moreover, the values for the AUC in data set [8] and in [11] were 678 ng·h/mL and 25.3 ng·h/mL, respectively. Further, the IC50 in the data set with PBMC [5] came to 60 nM; with PBMC [4], 3 nM. The Cmax in [9] was determined as 9.9 ng/mL. Moreover, in data set [10], the bioavailability came to 3.7%. The compound further registered an inhibition in vivo at 50 mg/kg in the data set with Mus musculus of 20%. Moreover, the Vd in data set [12] stood at 2.4 L/kg. For the same compound, the time to peak (Tmax) in data set [14] was found to be 0.5 h.

Regarding `Cc1cn(CCCc2ccccc2)c2cc(C(=O)Nc3c(Cl)cncc3Cl)ccc12`, the results for the IC50 (with PBMC [5]; in the data set with PBMC [4]; in data set [2]) were 168 nM, 3 nM and 25 nM, respectively. In data set [1], this compound displayed an inhibition constant (Ki) of 41 nM. Further, the inhibition in vivo at 50 mg/kg in the data set with Mus musculus is 17%.

As to `Cc1cn(Cc2cccc3ccccc23)c2cc(C(=O)Nc3c(Cl)cncc3Cl)ccc12`, the values for the concentration for half-maximal inhibition (IC50) (in the data set with PBMC [5]; in the data set with PBMC [4]; in [2]) were 1300 nM, 10 nM and 46 nM, respectively. The same compound returned a Ki in data set [1] of 60 nM.

Consider `Cc1cn(CCCC2CCCCC2)c2cc(C(=O)Nc3c(Cl)cncc3Cl)ccc12`, for which the half-inhibitory concentration (IC50) came out at 12 nM in the data set with PBMC [5], 0.7 nM in the data set with PBMC [4] and 220 nM in data set [2]. In addition, in data set [1], the inhibition constant Ki is on record as 187 nM. The same compound returned an inhibition in vivo at 50 mg/kg in the data set on Mus musculus of 27%.

Take `Cc1cn(CCC2CCCCC2)c2cc(C(=O)Nc3c(Cl)cncc3Cl)ccc12`: the IC50 in the data set with PBMC [5] was 2 nM; with PBMC [4], 0.7 nM; in data set [2], 3.2 nM. In data set [1], this compound displayed a Ki of 21 nM. The compound also showed an inhibition in vivo at 50 mg/kg with Mus musculus of 0%.

For the compound `Cc1cn(Cc2ccc3ccccc3c2)c2cc(C(=O)Nc3c(Cl)cncc3Cl)ccc12`, the IC50 came out at 90 nM with PBMC [5], 10.5 nM in the data set with PBMC [4] and 5.2 nM in data set [2]. The Ki in [1] was determined as 7 nM. The inhibition in vivo at 50 mg/kg in the data set with Mus musculus was 0%.

Turning to `CCCCCCCn1cc(C)c2ccc(C(=O)Nc3c(Cl)cncc3Cl)cc21`, the IC50 in the data set with PBMC [5] was determined as 11 nM; in the data set with PBMC [4], 3 nM; in [2], 25 nM. In [1], this compound gave a Ki of 66 nM. This compound yielded an inhibition in vivo at 50 mg/kg with Mus musculus of 22%.

Turning to `Cc1cn(C2CCCC2)c2cc(C(=O)Nc3c(Cl)cncc3Cl)ccc12`, the IC50 with PBMC [15] is 30 nM; in the data set on PBMC [4] it was 3 nM; in data set [2] it was 15 nM. The compound also displayed an inhibition constant Ki in [1] of 374 nM.

In the case of `Cc1cn(Cc2ccc(C(N)=O)cc2)c2cc(C(=O)Nc3c(Cl)cncc3Cl)ccc12`, the IC50 is 53 nM in the data set with PBMC [5], below 1 nM in the data set on PBMC [4] and 300 nM in data set [2]. In data set [1], this compound gave a Ki of 220 nM. In the data set with Mus musculus, this compound had an inhibition in vivo at 50 mg/kg of 0%.
